Legend:
[1] = Visual evaluation of discoloration of powder lotion-type antiperspirant lotions; assay type: physicochemical
Method: Recipes shown in Table 1-1 and Table 1-2 were used to prepare powder lotion-type antiperspirant lotions and the degree of discoloration was evaluated visually. For Comparative examples, a recipe containing no trisodium ethylenediaminehydroxyethyl triacetate and a recipe containing a chelating agent EDTA-3Na.2H2O instead of trisodium ethylenediaminehydroxyethyl triacetate were investigated. The degree of discoloration was evaluated by giving ◯ to those that are within the acceptable range for skin treatment composition, and × to those that are outside of this range.

[2] = Staining of clothing after application, sunlight exposure and washing (visual observation); assay type: physicochemical
Method: Recipes shown in Table 3-1 and Table 3-2 were used to prepare powder lotion-type antiperspirant lotions and a prescribed amount (4 micrograms/cm^2) is applied on clothing. The clothing was exposed to sunlight (10 minutes) and washed with common laundry detergent in a washing machine; the degree of staining was then evaluated by visual observation. For Comparative examples, recipes not containing polyoxyethylene polyoxypropylene 2-decyltetradecyl ether (20-28 E.O.) (10-16 P.O.) and recipes containing polyoxyethylene (E.O. 60) were investigated. The degree of staining was evaluated by giving ◯ to those that are within the acceptable range for skin treatment compositions, and × to those that are outside of this range.

| Compound | anti-discoloration effect of the ingredient in skin treatment compositions containing anti-bacterial zeolite [1] | anti-staining effect of the ingredient in skin treatment compositions containing anti-bacterial zeolite [2] |
| --- | --- | --- |
| O=C([O-])CN(CCN(CC(=O)[O-])CC(=O)O)CC(=O)[O-].[Na+].[Na+].[Na+] [EDTA-3Na] | do not have the anti-discoloration effect | – |
| O=C([O-])CN(CCO)CCN(CC(=O)[O-])CC(=O)[O-].[Na+].[Na+].[Na+] [trisalt ethylenediaminehydroxyethyl triacetate] | acts as an anti-discoloration agent | – |
| polyoxyethylene (E.O. 60) hydrogenated castor oil | – | do not have an anti-staining effect |
| polyoxyethylene polyoxypropylene 2-decyltetradecyl ether (20-28 E.O.) (10-16 P.O.) | – | acts as an anti-staining agent |

Source: patent US20060099161A1, “Skin preparations for external use” (priority 2002, published 2006)
